Measurements published in publication PMC11862134 (Nature Communications, 2025).
No end group written: not given here.

Experiments:
BAM1 and BAM3 receptor = conditions: upon reaching the leaves, drought stress; cited from earlier work
[1] = biological target: GST-tagged TaCLV1-LRR (extracellular domains of TaCLV1, residues 58-668) (wheat (Triticum aestivum L.)); assay: MST

Kd [1] [µM]	Molecule	interaction with BAM1 and BAM3 receptor (BAM1 and BAM3 receptor)
	CLE25: CLE25 peptide, messenger of water deficiency from roots to leaves (RKVPNGPDPIHN; ends and bridges not checked; UniProt Q8LFL4 58-69, looked up)	interacts with and activates BAM1 and BAM3 receptor
0.0194	RLSPGGSNPQHH [mature TaCLE24b peptide]	
